# Paper PMC10733197, “Utilization of Rosuvastatin and Endogenous Biomarkers in Evaluating the Impact of Ritlecitinib on BCRP, OATP1B1, and OAT3 Transporter Activity” (Pharmaceutical Research, 2023)
# “And” between values parts separate entries of the source, which are not always exact repeats. Identical values can stand only once. Like-named read-outs stand apart in the source and are kept apart here.
# Assays:
# [1] = system: OATP1B1; conditions: cited from earlier work; for ∆CP-I Observed: AUC ratio or single CP-I concentration ratio ± perpetrator, ref 1 (Rodrigues AD 2023)
# [2] = molecular target: T1, OATP1B3 (Homo sapiens, UniProt Q9NPD5); conditions: CP-I 0.1 µM; 30-minute pre-incubation; HEK293; published data; ref 1 (Rodrigues AD 2023); cited from earlier work
# T1 construct: expressed in transfected cells; host or cells: HEK293
# T1 sequence (Q9NPD5 1-702): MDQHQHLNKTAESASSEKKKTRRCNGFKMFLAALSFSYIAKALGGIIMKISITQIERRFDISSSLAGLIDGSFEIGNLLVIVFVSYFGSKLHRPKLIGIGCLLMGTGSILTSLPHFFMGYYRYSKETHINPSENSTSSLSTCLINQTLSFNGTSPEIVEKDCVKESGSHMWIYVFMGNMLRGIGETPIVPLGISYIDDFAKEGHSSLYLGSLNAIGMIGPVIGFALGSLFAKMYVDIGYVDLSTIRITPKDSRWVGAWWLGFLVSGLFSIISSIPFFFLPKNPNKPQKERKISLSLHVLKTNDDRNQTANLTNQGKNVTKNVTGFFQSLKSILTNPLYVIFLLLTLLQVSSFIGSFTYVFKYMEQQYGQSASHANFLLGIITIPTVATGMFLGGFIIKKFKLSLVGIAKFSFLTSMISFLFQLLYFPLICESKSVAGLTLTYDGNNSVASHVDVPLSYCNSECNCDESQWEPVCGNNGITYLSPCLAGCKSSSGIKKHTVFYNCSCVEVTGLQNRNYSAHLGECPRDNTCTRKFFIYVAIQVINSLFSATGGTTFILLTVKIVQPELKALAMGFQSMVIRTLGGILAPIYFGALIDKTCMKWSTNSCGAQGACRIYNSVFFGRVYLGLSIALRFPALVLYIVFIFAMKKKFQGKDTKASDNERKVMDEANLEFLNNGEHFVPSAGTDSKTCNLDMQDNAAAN
# [3] = molecular target: T2, OATP1B1 (Homo sapiens, UniProt Q9Y6L6); conditions: CP-I 0.1 µM; 30-minute pre-incubation; HEK293; published data; ref 1 (Rodrigues AD 2023); cited from earlier work
# T2 construct: expressed in transfected cells; host or cells: HEK293
# T2 sequence (Q9Y6L6 1-691): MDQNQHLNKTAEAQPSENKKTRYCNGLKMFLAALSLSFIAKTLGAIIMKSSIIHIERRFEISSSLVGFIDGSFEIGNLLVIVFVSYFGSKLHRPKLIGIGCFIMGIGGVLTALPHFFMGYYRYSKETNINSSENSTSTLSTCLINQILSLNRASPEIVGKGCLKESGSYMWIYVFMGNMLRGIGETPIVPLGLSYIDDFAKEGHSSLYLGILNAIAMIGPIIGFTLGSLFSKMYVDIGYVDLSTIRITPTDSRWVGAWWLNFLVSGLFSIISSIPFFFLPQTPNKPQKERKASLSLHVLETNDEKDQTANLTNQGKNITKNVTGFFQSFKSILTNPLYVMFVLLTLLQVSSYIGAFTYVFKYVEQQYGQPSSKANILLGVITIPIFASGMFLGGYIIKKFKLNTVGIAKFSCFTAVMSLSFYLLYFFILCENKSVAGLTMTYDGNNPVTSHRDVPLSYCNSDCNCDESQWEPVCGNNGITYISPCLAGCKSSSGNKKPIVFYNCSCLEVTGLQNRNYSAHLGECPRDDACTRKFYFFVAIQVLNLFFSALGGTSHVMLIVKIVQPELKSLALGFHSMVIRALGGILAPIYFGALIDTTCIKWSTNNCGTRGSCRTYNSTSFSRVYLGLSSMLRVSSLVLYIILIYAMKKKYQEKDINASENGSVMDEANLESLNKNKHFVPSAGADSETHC
# [4] = cited from earlier work; for Imax,inlet,u: ka = 0.1 min^-1 assumed, ref 1 (Rodrigues AD 2023)
# [5] = system: OCT1; set-up: method as in PMID 36807251; conditions: cited from earlier work
# [6] = system: OAT1/3; assay: Plasma PDA as endogenous biomarker of OAT1/3 in clinical DDI studies; type: in vivo, human; conditions: for AUC24 / Cmax: geometric mean (%CV)
# Experimental: (§1) Blood and urine samples were collected at prespecified timepoints. Rosuvastatin plasma samples (~ 6 mL) were collected predose and at 0.5, 1, 2, 3, 4, 5, 6, 8, 10, 12, 16, 24, 36, 48, and 72 h postdose. CP-I and PDA plasma samples (~ 6 mL) were collected predose and at 0.5, 1, 2, 3, 4, 5, 6, 8, 10, 12, 16, and 24 h post rosuvastatin dosing. Rosuvastatin urine samples were collected at predose, 0–6 h, 6–12, 12–24, 24–48, and 48–72 h postdose. Each participant emptied their bladder just prior to dosing.
# Quantification of PDA was conducted by mass spectrometry according to Towner et al.. […] Mass spectrometry detection of the analytes were achieved using a SCIEX API QTrap 5500 mass spectrometry and a Turbo V electrospray ionization source in negative ion mode. Plasma samples were prepared by protein precipitation by spiking 50 μL of sample with 200 μL of 300 ng/mL 4-aminosalicylic acid internal standard. After vortexing/centrifugation, 200 μL of supernatant was transferred and 1 μL injections were analyzed. A 1/x^2 weighted linear regression was used to quantitate sample concentrations.
# (§2) The PK parameters for rosuvastatin, CP-I and PDA were calculated for each participant and each treatment using Pfizer’s internally validated electronic noncompartmental analysis software (eNCA) version 2.4.4. Samples below the lower limit of quantitation were set to zero for the PK analysis. Actual sample collection times were used for the PK analysis.
# (§3) Natural log transformed area under the plasma concentration-time profile from time 0 extrapolated to infinity (AUCinf), maximum plasma concentration (Cmax), and apparent renal clearance (CLr) were analyzed using a mixed effect model with treatment as a fixed effect and participant as a random effect (SAS version 9.4; SAS Institute, Cary, NC, USA). Estimates of the adjusted mean differences (Test-Reference) and corresponding 90% CIs were obtained from the model. The adjusted mean difference and 90% CIs for the differences were exponentiated to provide estimates of the ratio of adjusted geometric means (Test/Reference) and 90% CIs for the ratios. Rosuvastatin alone was the reference treatment, while the rosuvastatin coadministered with ritlecitinib was the Test treatment.
# [7] = system: OAT1/3; conditions: plasma PDA in the presence of probenecid; cited from earlier work
# [8] = system: OATP1B1; assay: Plasma CP-I as endogenous biomarker of OATP1B1 in clinical DDI studies; type: in vivo, human; set-up: AUC24 / Cmax: unit not given beside the values; conditions: for AUC24 / Cmax: geometric mean (%CV)
# Experimental: as §1
# Quantification of CP-I was conducted by mass spectrometry according to King-Ahmad et al.. Plasma samples were spiked with stable label internal standard (^15N4-coproporphyrin I). CP-I was isolated through supported liquid extraction. The eluate was evaporated under a nitrogen stream at approximately 45 °C, and the remaining residue was reconstituted with 125 μL of water/acetonitrile/formic acid (750:250: 1, v/v/v). The final extract was analyzed via UPLC® with column switching and MS/MS detection using positive ion electrospray. A linear, 1/x^2 weighted, least-squares regression algorithm was used to quantitate sample concentrations.
# as §2, §3
# [9] = rosuvastatin 10 mg + ritlecitinib 200 mg QD
# [10] = with vs without ritlecitinib 200 mg QD
compound,measurement,setting,value
O=C(O)[C@H]1C2CCC(CC2)[C@@H]1Nc1nc(-c2c[nH]c3ncc(F)cc23)ncc1F [Pimodivir],∆CP-I Observed,[1]; inhibitor dose 600 mg,1.4
same,IC50,[2],1.1 µM
same,IC50,[3],0.5 µM
same,"Imax,inlet,u",[4]; inhibitor dose 600 mg,0.4 µM
CC/C(=C(/c1ccc(/C=C/C(=O)O)cc1)c1ccc2[nH]ncc2c1)c1ccc(F)cc1Cl [GDC-0810],∆CP-I Observed,[1]; inhibitor dose 600 mg,1.5
same,IC50,[2],0.9 µM
same,IC50,[3],0.2 µM
same,"Imax,inlet,u",[4]; inhibitor dose 600 mg,0.009 µM
CO[C@H]1/C=C/O[C@@]2(C)Oc3c(C)c(O)c4c(O)c(c(/C=N/N5CCN(C)CC5)c(O)c4c3C2=O)NC(=O)/C(C)=C\C=C\[C@H](C)[C@H](O)[C@@H](C)[C@@H](O)[C@@H](C)[C@H](OC(C)=O)[C@@H]1C [Rifampicin],∆CP-I Observed,[1]; inhibitor dose 150 mg,1.5
same,∆CP-I Observed,[1]; inhibitor dose 300 mg,2.4 and 2.3
same,∆CP-I Observed,[1]; inhibitor dose 600 mg,3.5 and 3.7 and 4 and 5.6
same,IC50,[2],0.3 µM
same,"Imax,inlet,u",[4]; inhibitor dose 150 mg,3 µM
same,"Imax,inlet,u",[4]; inhibitor dose 300 mg,5.9 µM
same,"Imax,inlet,u",[4]; inhibitor dose 600 mg,11.9 µM
CNS(=O)(=O)Cc1ccc2[nH]cc(CCN(C)C)c2c1 [sumatriptan],increase in AUCinf,"[5]; sumatriptan with ritlecitinib coadministration, due to OCT1 inhibition",30%
same,decrease in Cmax,[5]; sumatriptan with ritlecitinib coadministration,13%
same,exposure increase,"[5]; sumatriptan, liver OCT1 inhibition by ritlecitinib and M2",up to 50%
COc1ccc2c(O[C@@H]3C[C@H]4C(=O)N[C@]5(C(=O)NS(=O)(=O)C6CC6)C[C@H]5/C=C\CCCCN(C)C(=O)[C@@H]4C3)cc(-c3nc(C(C)C)cs3)nc2c1C [Simeprevir],∆CP-I Observed,[1]; inhibitor dose 150 mg,1.4
same,IC50,[2],0.5 µM
same,IC50,[3],1 µM
same,"Imax,inlet,u",[4]; inhibitor dose 150 mg,0.002 µM
C[C@H]1CN(C2COC2)CCN1c1ccc(Nc2cc(-c3ccnc(N4CCn5c(cc6c5CC(C)(C)C6)C4=O)c3CO)cn(C)c2=O)nc1 [Fenebrutinib],∆CP-I Observed,[1]; inhibitor dose 200 mg,1
same,IC50,[2],1.2 µM
same,IC50,[3],6.1 µM
same,"Imax,inlet,u",[4]; inhibitor dose 200 mg,4.2 µM
CCCN(CCC)S(=O)(=O)c1ccc(C(=O)O)cc1 [Probenecid],∆CP-I Observed,"[1]; inhibitor dose 1,000 mg",1.4
same,IC50,[2],118 µM
same,"Cmax,u",[4]; inhibitor dose 1000 mg,22 µM
same,"Imax,inlet,u","[4]; inhibitor dose 1,000 mg",56.6 µM
CC(=O)O[C@H]1C(=O)[C@@]2(C)[C@H]([C@H](OC(=O)c3ccccc3)[C@]3(O)C[C@H](OC(=O)[C@H](O)[C@@H](NC(=O)c4ccccc4)c4ccccc4)C(C)=C1C3(C)C)[C@]1(OC(C)=O)CO[C@@H]1C[C@@H]2O [Paclitaxel],∆CP-I Observed,[1]; inhibitor dose 200 mg,2.8
same,IC50,[2],0.7 µM
"Cc1ncc(CO)c(C(=O)O)c1O [PDA, pyridoxic acid]",AUC24,[6]; [9],69.47 (33)
same,Cmax,[6]; [9],3.765 (28)
same,AUC24,[6]; rosuvastatin 10 mg alone,67.34 (30)
same,Cmax,[6]; rosuvastatin 10 mg alone,3.664 (29)
same,AUC24 % Ratio (Test/Reference) of Adjusted Geometric Means (90% CI),[6]; [10],"103.16 (87.65, 121.42) %"
same,Cmax % Ratio (Test/Reference) of Adjusted Geometric Means (90% CI),[6]; [10],"102.76 (87.58, 120.58) %"
same,increase in plasma AUC,[7],3.1 fold
CCC(C)n1ncn(-c2ccc(N3CCN(c4ccc(OCC5COC(Cn6cncn6)(c6ccc(Cl)cc6Cl)O5)cc4)CC3)cc2)c1=O (stereo not shown) [Itraconazole],∆CP-I Observed,[1]; inhibitor dose 200 mg,0.9
same,IC50,[2],20 µM
same,IC50,[3],20 µM
same,"Imax,inlet,u",[4]; inhibitor dose 200 mg,0.3 µM
COc1ccc([C@@H]2Sc3ccccc3N(CCN(C)C)C(=O)[C@@H]2OC(C)=O)cc1 [Diltiazem],IC50,[2],175 µM
same,IC50,[3],100 µM
coproporphyrin I [CP-I],increase in exposure (AUC24),[1]; plasma CP-I with coadministration of rifampicin vs rosuvastatin alone,4.0 fold
same,AUC24,[8]; [9],8729 (21)
same,Cmax,[8]; [9],418.8 (19)
same,AUC24,[8]; rosuvastatin 10 mg alone,8915 (21)
same,Cmax,[8]; rosuvastatin 10 mg alone,427.1 (22)
same,AUC24 % Ratio (Test/Reference) of Adjusted Geometric Means (90% CI),[8]; [10],"97.91 (92.24, 103.94) %"
same,Cmax % Ratio (Test/Reference) of Adjusted Geometric Means (90% CI),[8]; [10],"98.06 (93.13, 103.26) %"
C[C@H]1CCN1c1nc(N2C[C@@H]3[C@@H](CC(=O)O)[C@@H]3C2)cc(C(F)(F)F)n1 [PF-06835919],∆CP-I Observed,[1]; inhibitor dose 50 mg,1.1
same,∆CP-I Observed,[1]; inhibitor dose 100 mg,1.2
same,∆CP-I Observed,[1]; inhibitor dose 280 mg,1.5
same,∆CP-I Observed,[1]; inhibitor dose 400 mg,1.3
same,∆CP-I Observed,[1]; inhibitor dose 600 mg,1.8
same,IC50,[2],5.6 µM
same,IC50,[3],4.3 µM
same,"Imax,inlet,u",[4]; inhibitor dose 50 mg,1.5 µM
same,"Imax,inlet,u",[4]; inhibitor dose 100 mg,2.5 µM
same,"Imax,inlet,u",[4]; inhibitor dose 280 mg,8.2 µM
same,"Imax,inlet,u",[4]; inhibitor dose 400 mg,10.3 µM
same,"Imax,inlet,u",[4]; inhibitor dose 600 mg,15.3 µM
